Source: the kinase profiling compilation of Christmann-Franck et al. (2016)

Assays:
Test in all cases: KINOMEscan competition binding
Conditions in all cases: compound 10.0 µM
ACVR2A (human) = ACVR2A (human) (UniProt P27037)
BMP2K (human) = BMP2K (human) (UniProt Q9NSY1)
BMPR1A (human) = BMPR1A (human) (UniProt P36894)
BMPR1B (human) = BMPR1B (human) (UniProt O00238)
BMX (human) = BMX (human) (UniProt P51813)
BRSK2 (human) = BRSK2 (human) (UniProt Q8IWQ3)
CAMK2D (human) = CAMK2D (human) (UniProt Q13557)
CAMKK2 (human) = CAMKK2 (human) (UniProt Q96RR4)
CDC42BPA (human) = CDC42BPA (human) (UniProt Q5VT25)
CDC42BPG (human) = CDC42BPG (human) (UniProt Q6DT37)
CDKL5 (human) = CDKL5 (human) (UniProt O76039)
CDKL5 (human), sequence (O76039 whole entry, looked up): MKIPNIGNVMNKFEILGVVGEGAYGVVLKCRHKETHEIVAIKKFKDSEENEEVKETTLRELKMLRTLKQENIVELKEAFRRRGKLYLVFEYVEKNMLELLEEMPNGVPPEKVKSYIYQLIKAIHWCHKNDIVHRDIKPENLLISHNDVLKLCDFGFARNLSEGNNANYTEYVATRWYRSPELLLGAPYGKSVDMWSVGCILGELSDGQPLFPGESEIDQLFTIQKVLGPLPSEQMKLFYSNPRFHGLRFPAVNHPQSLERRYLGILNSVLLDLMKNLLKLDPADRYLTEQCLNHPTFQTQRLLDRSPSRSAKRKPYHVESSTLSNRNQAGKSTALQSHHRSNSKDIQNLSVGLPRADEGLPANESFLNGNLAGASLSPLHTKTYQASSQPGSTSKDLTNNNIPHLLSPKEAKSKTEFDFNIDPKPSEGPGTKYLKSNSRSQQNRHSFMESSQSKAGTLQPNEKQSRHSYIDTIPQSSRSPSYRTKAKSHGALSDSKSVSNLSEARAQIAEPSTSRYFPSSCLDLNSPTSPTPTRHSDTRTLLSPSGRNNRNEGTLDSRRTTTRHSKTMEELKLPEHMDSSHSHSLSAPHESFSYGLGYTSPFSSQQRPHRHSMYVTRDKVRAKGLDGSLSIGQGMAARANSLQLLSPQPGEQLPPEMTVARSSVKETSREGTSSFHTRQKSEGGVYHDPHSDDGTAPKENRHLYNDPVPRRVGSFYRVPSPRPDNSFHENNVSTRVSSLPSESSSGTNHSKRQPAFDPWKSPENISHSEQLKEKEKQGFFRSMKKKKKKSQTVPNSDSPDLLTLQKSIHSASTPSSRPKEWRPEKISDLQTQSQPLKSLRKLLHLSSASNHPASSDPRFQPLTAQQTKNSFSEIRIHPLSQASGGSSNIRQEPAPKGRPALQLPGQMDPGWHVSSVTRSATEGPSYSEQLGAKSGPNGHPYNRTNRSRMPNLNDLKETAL

CSNK1E (human) = CSNK1E (human) (UniProt P49674)
DYRK1A (human) = DYRK1A (human) (UniProt Q13627)
EIF2AK2 (human) = EIF2AK2 (human) (UniProt P19525)
EPHA5 (human) = EPHA5 (human) (UniProt P54756)
EPHA6 (human) = EPHA6 (human) (UniProt Q9UF33)
EPHB6 (human) = EPHB6 (human) (UniProt O15197)
FER (human) = FER (human) (UniProt P16591)
FGFR3 (human) = FGFR3 (human) (UniProt P22607)
FGFR3 (human), sequence (P22607 whole entry, looked up): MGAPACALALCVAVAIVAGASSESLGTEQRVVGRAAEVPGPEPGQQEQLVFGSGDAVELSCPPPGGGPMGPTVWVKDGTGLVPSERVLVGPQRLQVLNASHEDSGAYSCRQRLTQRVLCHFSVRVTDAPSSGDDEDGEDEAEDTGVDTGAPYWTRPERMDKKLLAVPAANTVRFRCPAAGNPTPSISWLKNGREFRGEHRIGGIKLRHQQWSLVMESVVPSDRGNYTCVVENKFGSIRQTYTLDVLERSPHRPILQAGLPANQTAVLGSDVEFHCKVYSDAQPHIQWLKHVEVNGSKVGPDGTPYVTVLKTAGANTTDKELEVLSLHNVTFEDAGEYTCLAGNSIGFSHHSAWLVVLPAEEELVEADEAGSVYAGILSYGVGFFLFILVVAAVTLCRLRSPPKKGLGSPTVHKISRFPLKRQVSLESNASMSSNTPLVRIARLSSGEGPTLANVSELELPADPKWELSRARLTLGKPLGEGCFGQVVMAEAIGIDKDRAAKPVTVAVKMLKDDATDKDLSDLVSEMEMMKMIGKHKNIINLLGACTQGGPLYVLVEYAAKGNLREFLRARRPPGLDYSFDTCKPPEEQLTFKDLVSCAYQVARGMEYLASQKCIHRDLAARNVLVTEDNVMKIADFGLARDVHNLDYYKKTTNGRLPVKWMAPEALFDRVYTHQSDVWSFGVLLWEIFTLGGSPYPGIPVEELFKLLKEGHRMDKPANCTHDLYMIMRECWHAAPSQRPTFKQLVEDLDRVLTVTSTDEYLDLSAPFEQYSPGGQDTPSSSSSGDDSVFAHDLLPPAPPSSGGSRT

[1] = tested on: FLT3 (human), P36888 [K663Q]
GSK3A (human) = GSK3A (human) (UniProt P49840)
INSRR (human) = INSRR (human) (UniProt P14616)
[2] = tested on: KIT (human), P10721 [V559D/T670I]
MAPK4 (human) = MAPK4 (human) (UniProt P31152)
MET (human) = MET (human) (UniProt P08581)
NEK1 (human) = NEK1 (human) (UniProt Q96PY6)
NEK6 (human) = NEK6 (human) (UniProt Q9HC98)
NEK9 (human) = NEK9 (human) (UniProt Q8TD19)
NUAK1 (human) = NUAK1 (human) (UniProt O60285)
NUAK1 (human), sequence (O60285 whole entry, looked up): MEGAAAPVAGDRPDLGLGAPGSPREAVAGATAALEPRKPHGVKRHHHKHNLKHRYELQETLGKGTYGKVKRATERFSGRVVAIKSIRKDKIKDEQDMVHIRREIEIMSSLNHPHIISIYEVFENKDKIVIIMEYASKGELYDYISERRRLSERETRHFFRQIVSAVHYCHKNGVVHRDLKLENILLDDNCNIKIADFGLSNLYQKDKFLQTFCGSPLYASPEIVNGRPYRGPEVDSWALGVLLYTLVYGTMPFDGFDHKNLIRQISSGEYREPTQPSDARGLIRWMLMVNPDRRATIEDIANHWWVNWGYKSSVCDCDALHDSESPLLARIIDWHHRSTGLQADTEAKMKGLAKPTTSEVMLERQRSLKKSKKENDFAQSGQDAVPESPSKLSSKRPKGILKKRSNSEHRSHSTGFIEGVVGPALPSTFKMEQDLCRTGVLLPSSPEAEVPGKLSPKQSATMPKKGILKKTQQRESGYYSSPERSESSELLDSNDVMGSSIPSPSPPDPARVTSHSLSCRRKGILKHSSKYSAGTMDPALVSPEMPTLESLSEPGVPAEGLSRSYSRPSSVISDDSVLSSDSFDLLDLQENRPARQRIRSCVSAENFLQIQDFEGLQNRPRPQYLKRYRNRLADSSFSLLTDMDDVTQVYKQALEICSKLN

PAK3 (human) = PAK3 (human) (UniProt O75914)
PAK6 (human) = PAK6 (human) (UniProt Q9NQU5)
PIK3C2G (human) = PIK3C2G (human) (UniProt O75747)
[3] = tested on: PIK3CA (human), P42336 [M1043I]
PIM3 (human) = PIM3 (human) (UniProt Q86V86)
PLK2 (human) = PLK2 (human) (UniProt Q9NYY3)
PRKG1 (human) = PRKG1 (human) (UniProt Q13976)
PTK6 (human) = PTK6 (human) (UniProt Q13882)
RET (human) = RET (human) (UniProt P07949)
SBK1 (human) = SBK1 (human) (UniProt Q52WX2)
SRPK3 (human) = SRPK3 (human) (UniProt Q9UPE1)
SRPK3 (human), sequence (Q9UPE1 whole entry, looked up): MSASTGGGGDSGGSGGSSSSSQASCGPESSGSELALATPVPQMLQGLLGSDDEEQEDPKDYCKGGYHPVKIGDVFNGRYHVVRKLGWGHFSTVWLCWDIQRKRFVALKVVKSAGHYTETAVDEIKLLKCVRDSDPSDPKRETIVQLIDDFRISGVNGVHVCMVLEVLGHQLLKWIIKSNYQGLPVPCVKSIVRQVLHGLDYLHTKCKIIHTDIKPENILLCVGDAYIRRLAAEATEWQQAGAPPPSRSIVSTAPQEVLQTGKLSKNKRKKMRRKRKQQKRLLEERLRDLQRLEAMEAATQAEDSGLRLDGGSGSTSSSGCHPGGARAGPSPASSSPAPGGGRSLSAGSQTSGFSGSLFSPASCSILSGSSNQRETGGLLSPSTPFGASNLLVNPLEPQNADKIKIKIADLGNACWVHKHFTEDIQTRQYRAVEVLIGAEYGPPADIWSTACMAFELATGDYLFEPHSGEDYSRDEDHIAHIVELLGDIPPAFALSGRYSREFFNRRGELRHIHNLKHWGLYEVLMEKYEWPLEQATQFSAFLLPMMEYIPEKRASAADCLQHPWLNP

TEK (human) = TEK (human) (UniProt Q02763)
TEK (human), sequence (Q02763 whole entry, looked up): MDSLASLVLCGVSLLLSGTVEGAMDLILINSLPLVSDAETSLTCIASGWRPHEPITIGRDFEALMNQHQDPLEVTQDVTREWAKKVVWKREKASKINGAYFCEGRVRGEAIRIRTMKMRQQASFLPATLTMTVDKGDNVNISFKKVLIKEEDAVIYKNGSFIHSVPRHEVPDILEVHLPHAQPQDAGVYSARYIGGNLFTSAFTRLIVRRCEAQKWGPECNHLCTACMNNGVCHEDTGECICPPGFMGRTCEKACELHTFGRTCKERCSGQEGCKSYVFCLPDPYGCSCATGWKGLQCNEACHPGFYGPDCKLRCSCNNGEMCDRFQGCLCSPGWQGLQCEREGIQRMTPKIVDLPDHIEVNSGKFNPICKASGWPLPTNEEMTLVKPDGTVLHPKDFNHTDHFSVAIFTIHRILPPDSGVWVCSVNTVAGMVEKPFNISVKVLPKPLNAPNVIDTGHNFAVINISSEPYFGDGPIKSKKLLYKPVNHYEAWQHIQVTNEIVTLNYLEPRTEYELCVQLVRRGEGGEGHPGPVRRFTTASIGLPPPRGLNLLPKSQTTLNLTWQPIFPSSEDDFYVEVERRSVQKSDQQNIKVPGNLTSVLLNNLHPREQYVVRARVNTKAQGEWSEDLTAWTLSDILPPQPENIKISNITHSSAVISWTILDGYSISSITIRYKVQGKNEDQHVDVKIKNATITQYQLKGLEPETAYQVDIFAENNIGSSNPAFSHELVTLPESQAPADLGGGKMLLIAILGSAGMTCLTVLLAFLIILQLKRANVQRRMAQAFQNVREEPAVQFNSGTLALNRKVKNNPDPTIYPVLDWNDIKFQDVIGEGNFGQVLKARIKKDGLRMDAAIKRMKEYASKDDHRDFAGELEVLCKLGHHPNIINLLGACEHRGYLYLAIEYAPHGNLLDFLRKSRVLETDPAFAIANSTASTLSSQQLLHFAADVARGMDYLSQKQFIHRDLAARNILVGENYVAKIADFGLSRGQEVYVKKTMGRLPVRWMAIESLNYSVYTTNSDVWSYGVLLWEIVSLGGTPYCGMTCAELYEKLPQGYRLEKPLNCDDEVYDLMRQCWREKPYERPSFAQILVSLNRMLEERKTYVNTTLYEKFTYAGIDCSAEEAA

TTK (human) = TTK (human) (UniProt P33981)
TTK (human), sequence (P33981 whole entry, looked up): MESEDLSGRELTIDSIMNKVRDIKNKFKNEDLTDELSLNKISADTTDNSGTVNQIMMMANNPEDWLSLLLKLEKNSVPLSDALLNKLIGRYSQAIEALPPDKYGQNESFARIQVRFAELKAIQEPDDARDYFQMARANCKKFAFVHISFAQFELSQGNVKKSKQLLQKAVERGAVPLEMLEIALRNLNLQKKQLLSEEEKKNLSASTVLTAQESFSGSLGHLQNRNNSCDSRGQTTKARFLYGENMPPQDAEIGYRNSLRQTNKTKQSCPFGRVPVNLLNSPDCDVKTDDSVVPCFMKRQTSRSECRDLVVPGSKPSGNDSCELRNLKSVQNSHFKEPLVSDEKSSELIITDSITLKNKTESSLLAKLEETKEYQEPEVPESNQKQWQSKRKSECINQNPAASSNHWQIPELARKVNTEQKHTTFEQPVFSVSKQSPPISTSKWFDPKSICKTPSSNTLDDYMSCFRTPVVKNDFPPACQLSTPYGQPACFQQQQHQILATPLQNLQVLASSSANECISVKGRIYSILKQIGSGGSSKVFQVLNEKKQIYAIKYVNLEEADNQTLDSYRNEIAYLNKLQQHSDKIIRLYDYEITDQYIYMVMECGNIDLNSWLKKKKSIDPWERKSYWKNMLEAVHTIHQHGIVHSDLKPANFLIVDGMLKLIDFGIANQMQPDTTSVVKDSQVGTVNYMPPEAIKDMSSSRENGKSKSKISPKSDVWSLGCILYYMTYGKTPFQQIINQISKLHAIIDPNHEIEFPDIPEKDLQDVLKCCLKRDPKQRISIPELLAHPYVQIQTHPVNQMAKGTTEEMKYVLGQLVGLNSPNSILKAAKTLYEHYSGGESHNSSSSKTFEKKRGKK

Molecule Cn1cc(C2=C(c3ccc(Cl)cc3Cl)C(=O)NC2=O)c2ccccc21 has a kinase still bound, per cent of control (ACVR2A (human)) of 79%, a kinase still bound, per cent of control (BMP2K (human)) of 58% and a kinase still bound, per cent of control (BMPR1A (human)) of 100%. It also gave a kinase still bound, per cent of control (BMPR1B (human)) of 86%, a kinase still bound, per cent of control (BMX (human)) of 78% and a kinase still bound, per cent of control (BRSK2 (human)) of 85%. For the same molecule, the kinase still bound, per cent of control (CAMK2D (human)) was 56%, the kinase still bound, per cent of control (CAMKK2 (human)) was 72% and the kinase still bound, per cent of control (CDC42BPA (human)) was 100%. The kinase still bound, per cent of control (CDC42BPG (human)) was 100%, the kinase still bound, per cent of control (CDKL5 (human)) was 100% and the kinase still bound, per cent of control (CSNK1E (human)) was 49%. For the same molecule, the kinase still bound, per cent of control (DYRK1A (human)) was 2.3%, the kinase still bound, per cent of control (EIF2AK2 (human)) was 81% and the kinase still bound, per cent of control (EPHA5 (human)) was 99%. It also gave a kinase still bound, per cent of control (EPHA6 (human)) of 100%, a kinase still bound, per cent of control (EPHB6 (human)) of 100% and a kinase still bound, per cent of control (FER (human)) of 100%. For the same molecule, the kinase still bound, per cent of control (FGFR3 (human)) was 97%, the kinase still bound, per cent of control [1] was 62% and the kinase still bound, per cent of control (GSK3A (human)) was 0%. For the same molecule, the kinase still bound, per cent of control (INSRR (human)) was 72%, the kinase still bound, per cent of control [2] was 92% and the kinase still bound, per cent of control (MAPK4 (human)) was 100%. The kinase still bound, per cent of control (MET (human)) was 79%, the kinase still bound, per cent of control (NEK1 (human)) was 86% and the kinase still bound, per cent of control (NEK6 (human)) was 91%. It also gave a kinase still bound, per cent of control (NEK9 (human)) of 100%, a kinase still bound, per cent of control (NUAK1 (human)) of 90% and a kinase still bound, per cent of control (PAK3 (human)) of 86%. The kinase still bound, per cent of control (PAK6 (human)) was 86%, the kinase still bound, per cent of control (PIK3C2G (human)) was 94% and the kinase still bound, per cent of control [3] was 100%. For the same molecule, the kinase still bound, per cent of control (PIM3 (human)) was 18%, the kinase still bound, per cent of control (PLK2 (human)) was 100% and the kinase still bound, per cent of control (PRKG1 (human)) was 61%. The kinase still bound, per cent of control (PTK6 (human)) was 100%, the kinase still bound, per cent of control (RET (human)) was 100% and the kinase still bound, per cent of control (SBK1 (human)) was 97%. For the same molecule, the kinase still bound, per cent of control (SRPK3 (human)) was 100%, the kinase still bound, per cent of control (TEK (human)) was 73% and the kinase still bound, per cent of control (TTK (human)) was 83%.

Molecule COc1ccc(CNC(=O)Nc2ncc([N+](=O)[O-])s2)cc1 has a kinase still bound, per cent of control (ACVR2A (human)) of 87%, a kinase still bound, per cent of control (BMP2K (human)) of 100% and a kinase still bound, per cent of control (BMPR1A (human)) of 78%. The kinase still bound, per cent of control (BMPR1B (human)) was 89%, the kinase still bound, per cent of control (BMX (human)) was 100% and the kinase still bound, per cent of control (BRSK2 (human)) was 100%. The kinase still bound, per cent of control (CAMK2D (human)) was 100%, the kinase still bound, per cent of control (CAMKK2 (human)) was 100% and the kinase still bound, per cent of control (CDC42BPA (human)) was 100%. The kinase still bound, per cent of control (CDC42BPG (human)) was 100%, the kinase still bound, per cent of control (CDKL5 (human)) was 100% and the kinase still bound, per cent of control (CSNK1E (human)) was 87%. The kinase still bound, per cent of control (DYRK1A (human)) was 100%, the kinase still bound, per cent of control (EIF2AK2 (human)) was 76% and the kinase still bound, per cent of control (EPHA5 (human)) was 100%. The kinase still bound, per cent of control (EPHA6 (human)) was 100%, the kinase still bound, per cent of control (EPHB6 (human)) was 100% and the kinase still bound, per cent of control (FER (human)) was 100%. It also gave a kinase still bound, per cent of control (FGFR3 (human)) of 100%, a kinase still bound, per cent of control [1] of 70% and a kinase still bound, per cent of control (GSK3A (human)) of 0.1%. For the same molecule, the kinase still bound, per cent of control (INSRR (human)) was 93%, the kinase still bound, per cent of control [2] was 86% and the kinase still bound, per cent of control (MAPK4 (human)) was 100%. For the same molecule, the kinase still bound, per cent of control (MET (human)) was 92%, the kinase still bound, per cent of control (NEK1 (human)) was 100% and the kinase still bound, per cent of control (NEK9 (human)) was 100%. It also gave a kinase still bound, per cent of control (NUAK1 (human)) of 100%, a kinase still bound, per cent of control (PAK3 (human)) of 90% and a kinase still bound, per cent of control (PAK6 (human)) of 100%. The kinase still bound, per cent of control (PIK3C2G (human)) was 100%, the kinase still bound, per cent of control [3] was 100% and the kinase still bound, per cent of control (PIM3 (human)) was 83%. It also gave a kinase still bound, per cent of control (PLK2 (human)) of 100%, a kinase still bound, per cent of control (PRKG1 (human)) of 97% and a kinase still bound, per cent of control (PTK6 (human)) of 92%. The kinase still bound, per cent of control (RET (human)) was 100%, the kinase still bound, per cent of control (SBK1 (human)) was 100% and the kinase still bound, per cent of control (SRPK3 (human)) was 100%. The kinase still bound, per cent of control (TEK (human)) was 78% and the kinase still bound, per cent of control (TTK (human)) was 100%.
